The source of these data is patent US20070037143A1, “Method for screening for protease modulators” (DIGILAB BioVisioN GmbH, priority 2005, published 2007).

“Also recorded” adds a separate entry of the source.

Common to all, as to format: in vivo
Test [1] concerns the target T1, DPP4 (Rattus norvegicus, UniProt P14740).
T1 construct: from tissue; host or cells: Wistar rats dosed in vivo; activity read in tail-vein plasma
Kind of test: Peptide display (RP chromatography + MALDI-MS) of rat plasma: Spearman correlation of peptide/protein signals with inhibitor concentration or before/after change in DPP4 activity. More on the design: key to Correlation of mass spectrometric signal with concentration of inhibitor AB & Contr.In. A / Correlation of mass spectrometric signal with concentration of inhibitor Contr.In. C: With positive (pos.) correlation regarding the inhibitor concentration is meant that higher concentrations of inhibitor result in higher concentration of a peptide or protein. The method, then:
The DPP4 inhibitor AB192 (bis(4-acetamidophenyl)-1-(S)-prolylpyrrolidine-2-(R,S)-phosphonate) (J. Med. Chem., 1999, 42:1041-52) was kindly provided by Ingrid De Meester (University of Antwerp, Campus Drie Eiken, Department of Pharmaceutical Sciences, Universiteitsplein 1, B-2610 Wilrijk-Antwerpen). AB192, an irreversible inhibitor of DPP4, was used at 0.32, 1.00 and 3.2 mg/kg body weight. The control inhibitor (Contr.In.) was used at 0.3, 1.0 and 3.0 mg/kg body weight. Eight week old Wistar rats (315-320 g body weight) received either of the inhibitors (8 animals for each inhibitor concentration of each inhibitor) or were treated with vehicle (50 mM sodium phosphate buffer; pH 7.4) (4 animals). The rats received the inhibitors or vehicle by subcutaneous injection into the fat tissue of the neck using a 27-G needle. Blood samples (100 μl) for DPP4 activity measurements were drawn from the tail vein before injection and at the end of the experiment 1 h after injection of the DPP4 inhibitors. At this point, the rats were anaesthetised using a mixture of ketamin (9 mg/100 g body weight) and rompun (0.2 mg/100 g body weight). Additionally, rats received a short burst of ether for quick anaesthesia. The thorax was opened immediately and 4 to 6 ml of blood taken from the right ventricle into ethylenediaminetetraacetic acid (EDTA) laminated syringes and transferred into a 15 ml tube filled with EDTA at a final concentration of 2.5 mg/ml.
Rat blood samples were consecutively centrifuged at room temperature for 10 min at 2000×g and for 15 min at 2500×g. The resulting platelet poor plasma was stored at −80° C. until analysis. For reduction of the protein load of the plasma, the plasma sample was diluted 1:4 with 8 M guanidinium chloride solution at room temperature and for quality control purposes a peptide standard mix was added resulting in a final concentration of 300 to 800 pM of each individual standard peptide added. The peptides added were: substance P, somatostatin-14, neurotensin, renin substrate (porcine), adrenocorticotropic hormone (ACTH)(1-17), big endothelin-1(19-38), ACTH(18-39), beta-Endorphin(6-31), adrenocorticotropic hormone(1-24), calcitonin (human), insulin B chain oxide (bovine), ACTH(7-38), pro34-neuropeptide Y (porcine) and growth hormone-releasing factor (GRF)(1-44). All Peptides or proteins represent the human sequence, if not indicated to the contrary and the numbers in brackets following some of the peptides indicate the amino acid positions of the complete sequence including said peptide. Prior to use, the ultrafiltration devices are rinsed with distilled water. Ultrafiltration was done using Amicon Ultra filter devices with a molecular weight cut-off of 50 kDa (Millipore, Bedford, USA), which were centrifuged according to the manufacturer's instructions at 4000×g for 60 min at room temperature in a swinging bucket rotor. Finally, the pH of the filtrate was adjusted to pH 2 to 3 using concentrated HCl (30% v/v). If the sample (filtrate) was not directly further processed, it was stored at −80° C. A 750 μl-equivalent of plasma was used per chromatographic run.
The separation of peptides and/or proteins was done using a Source 5RPC, 4,6×150 mm reverse phase chromatography column (Amersham Biosciences Europe GmbH, Freiburg, Germany). Buffer A was 0.06% (v/v) (volume per volume) trifluoroacetic acid (TFA) in distilled water and buffer B was 0.05% (v/v) TFA, 80% (v/v) acetonitrile in distilled water. The chromatography took place at 33° C. using a HP 1100 HPLC with a micro flow cell both supplied by Agilent Technologies, Böblingen, Germany. The samples were diluted to 5.5 ml using a 0.1% (v/v) stock solution of trifluoroacetic acid. Prior to chromatography, the samples were centrifuged at 4° C. and 15 000×g for 10 minutes and finally 5 ml of sample were loaded onto the chromatography column representing an equivalent of 750 μl plasma. […]

Test [2] deals with T1, DPP4. The test can be described thus: Panels of pairs of peptides/proteins (linear model): correlation to inhibitor concentration or to decreased DPP4 activity. Particulars: for Correlation coefficient of Panel 1 + 2: panel of both peptides/proteins; for Correlation coefficient of Pep./Prot. 1: single peptide/protein 1 of the panel; for Correlation coefficient of Pep./Prot. 2: single peptide/protein 2 of the panel. The method, then:
In addition, networks of peptides and/or proteins were calculated. This allows, for example, to identify panels of peptides and/or proteins, which enable to better reflect the biological impact of the inhibitors (FIG. 5/Table 2). Combining two peptides and/or proteins in these panels increased the reliability of the prediction (e.g. concentration of inhibitor, “before/after change in DPP4 activity”) possible by evaluating these peptide/protein panels. These panels were determined by comprehensively combining peptide and/or protein signals to pairs of peptide and/or protein signals. In a “linear model”, the signal intensities of the peptide and/or protein pairs were treated as independent variables, and the endpoint DPP4 concentration (or change in DPP4 activity) was treated as the dependent variable. The “linear model” was then calculated (e.g. with R-package, version 2.00 (R Foundation for Statistical Computing, Vienna, Austria) or S-plus, version 6.0 (Insightful AG, Reinach, Switzerland), etc.).
In addition to panels of peptides and/or proteins, surrogate networks of peptides and/or proteins can also be predicted, which peptides and/or proteins can replace each other, i.e. the peptides and/or proteins are surrogates of each other. Using this method it is, for example, possible to identify peptides and/or proteins which have the same diagnostic value. […] In addition, it is possible to choose those peptides and/or proteins of a surrogate network, which can be measured with the least effort. Both strategies can be combined to save time, resources, valuable or limited patient samples, etc. For determining these surrogate networks and peptide and/or protein panels, methods such as the methods described in PCT/EP 2005/000090 can be used.

The target in test [3] is T1, DPP4. The test can be described thus: DPP4 activity in plasma of rats injected with DPP4 inhibitors (G-P-4 nitroanilide substrate, 405 nm). The note with it: Wistar rats, s.c., 0.3-3.2 mg/kg, 1 h after injection; FIG. 2. The procedure: The DPP4 inhibitor AB192 (bis(4-acetamidophenyl)-1-(S)-prolylpyrrolidine-2-(R,S)-phosphonate) (J. Med. Chem., 1999, 42:1041-52) was kindly provided by Ingrid De Meester (University of Antwerp, Campus Drie Eiken, Department of Pharmaceutical Sciences, Universiteitsplein 1, B-2610 Wilrijk-Antwerpen). AB192, an irreversible inhibitor of DPP4, was used at 0.32, 1.00 and 3.2 mg/kg body weight. The control inhibitor (Contr.In.) was used at 0.3, 1.0 and 3.0 mg/kg body weight. Eight week old Wistar rats (315-320 g body weight) received either of the inhibitors (8 animals for each inhibitor concentration of each inhibitor) or were treated with vehicle (50 mM sodium phosphate buffer; pH 7.4) (4 animals). The rats received the inhibitors or vehicle by subcutaneous injection into the fat tissue of the neck using a 27-G needle. […]
Blood samples taken from the tail vein were immediately centrifuged (2000×g; 10 min at room temperature) and plasma stored at −20° C. […] The 96-well plate was read immediately using a Tecan Genios microplate reader (Tecan Deutschland GmbH, Crailsheim, Germany) and measurements were taken at 37° C. over a period of time of 1 h at a wavelength of 405 nm. From the measured values the blank signal (plasma+HEPES buffer) was subtracted and data calculated as Units/litre (U/l). […]

Where [4] appears, read: with concentration of AB and Contr.In.
The mark [5] stands for this setting: with concentration of AB (AB192 inhibitor).
Setting [6] is: with DPP4 activity in presence of AB (AB192 inhibitor).

T1 sequence (P14740 whole entry): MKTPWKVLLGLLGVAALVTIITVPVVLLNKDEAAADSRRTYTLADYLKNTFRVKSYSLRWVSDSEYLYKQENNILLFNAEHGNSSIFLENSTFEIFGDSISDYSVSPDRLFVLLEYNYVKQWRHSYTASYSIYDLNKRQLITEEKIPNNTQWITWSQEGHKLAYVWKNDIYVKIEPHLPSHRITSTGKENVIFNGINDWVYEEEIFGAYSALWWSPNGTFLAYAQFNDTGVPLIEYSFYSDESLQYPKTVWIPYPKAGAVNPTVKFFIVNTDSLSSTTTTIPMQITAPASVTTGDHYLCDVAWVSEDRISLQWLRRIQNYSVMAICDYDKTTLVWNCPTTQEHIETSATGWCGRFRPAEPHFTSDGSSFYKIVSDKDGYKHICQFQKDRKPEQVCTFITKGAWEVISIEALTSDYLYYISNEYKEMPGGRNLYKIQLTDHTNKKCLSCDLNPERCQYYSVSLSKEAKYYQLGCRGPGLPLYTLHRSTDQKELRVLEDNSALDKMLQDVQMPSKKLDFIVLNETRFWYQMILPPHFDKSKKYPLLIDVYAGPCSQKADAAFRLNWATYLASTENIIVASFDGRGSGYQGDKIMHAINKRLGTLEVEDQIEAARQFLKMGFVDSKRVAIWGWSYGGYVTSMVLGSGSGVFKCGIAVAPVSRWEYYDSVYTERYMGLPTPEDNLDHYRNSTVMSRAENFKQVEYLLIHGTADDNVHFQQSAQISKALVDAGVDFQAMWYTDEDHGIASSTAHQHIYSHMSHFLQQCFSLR

As to “LPGPPGERGGPGSRGFPGADGVAGP [Peptide/Protein No. 2]”, at DPP4 [1] (Spearman, correlates with concentration of AB192 and of control inhibitor, n=49, |r|>0.5, rat plasma 1 h after s.c. injection), the “Correlation of mass spectrometric signal with concentration of inhibitor AB & Contr.In. A” value is “pos”. Besides, the “correlation of mass spectrometric signal with the amount of the DPP4 inhibitor AB192 or the control inhibitor given to the rat” value at DPP4 [1] (rat plasma, FIG. 3B) is “positively”. At DPP4 [2] (setting [4]), the “Correlation coefficient of Panel 1 + 2” value turned out to be 0.59, the “Correlation coefficient of Pep./Prot. 1” value is reported as −0.52 and the “Correlation coefficient of Pep./Prot. 2” value is −0.52.

Consider PPGPPGPPGPPGPPS [Peptide/Protein No. 3], for which the “Correlation of mass spectrometric signal with concentration of inhibitor Contr.In. C” value on DPP4 [1] (Spearman, concentration of control inhibitor, but not of AB192, n=27, |r|>0.61, rat plasma) was “pos”. Further, the “correlation of mass spectrometric signal with the amount of control inhibitor (Contr.In.) given to the rat” value at DPP4 [1] (rat plasma, FIG. 4A) is reported as “positively”. Besides, at DPP4 [2] (setting [5]), the “Correlation coefficient of Panel 1 + 2” value is 0.66, the “Correlation coefficient of Pep./Prot. 1” value is −0.44 and the “Correlation coefficient of Pep./Prot. 2” value is 0.48.

With `CC(=O)Nc1ccc(OP(=O)(Oc2ccc(NC(C)=O)cc2)C2CCCN2C(=O)[C@@H]2CCCN2)cc1` (stereo partly drawn) [AB192, bis(4-acetamidophenyl)-1-(S)-prolylpyrrolidine-2-(R,S)-phosphonate], the “DPP4 activity in plasma” value at DPP4 [3] is listed as “inhibited the activity of DPP4 in vivo in rats in a dose dependent manner; also recorded: inhibit DPP4 activity in vivo in a dose-dependent manner”.

As to “GAPGQNGEPGAKGERGAPGEKGEGGPPG [Peptide/Protein No. 45]”, the “Correlation of mass spectrometric signal with DPP4 inhibition by Contr.In. F” value at DPP4 [1] (Spearman, before/after change in DPP4 activity with control inhibitor, but not AB192, n=31, |r|>0.61, rat plasma) was “neg”. Moreover, the “correlation of mass spectrometric signal with the DPP4 activity measured in the same samples” value at DPP4 [1] (plasma of rats treated with control inhibitor (Contr.In.), FIG. 3A, 4B) was “negatively”. For the same molecule, at DPP4 [2] (setting [6]), the “Correlation coefficient of Panel 1 + 2” value is on record as 0.54, the “Correlation coefficient of Pep./Prot. 1” value is −0.38 and the “Correlation coefficient of Pep./Prot. 2” value was −0.4.
